Drawing on a melting point compilation (Tetko et al.; mined from patent text by program, amines drawn as free bases though some values may be those of a salt), this text covers melting point for 63 molecules.

One may read the melting point as the temperature, or range, at which the solid turns liquid.

In turn, `CCCCCCCCCCCCc1ccccc1C(Sc1nc(C)c(C(=O)O)n1C)C(=O)O` (stereo not drawn) came in with a melting point of 104 to 106 °C.
Next, `N#Cc1ccc(N2C(=O)N(CCCC(=O)O)C3(CCOCC3)C2=O)cc1C(F)(F)F`: 151 to 152 °C; `CC(COc1ccccc1)NCC(O)COc1cccc(O)c1` (stereo not drawn): 124 to 127 °C; `CCOC(=O)C1=C(C)NC(C)=C(C(=O)OC)C1c1cccc(C#N)c1` (stereo not drawn): 150 °C.
On to `CC[C@H]1c2ccc(C#N)n2-c2cc(F)c(F)cc2N1S(=O)(=O)c1ccc(O)c(C)c1`, for which the melting point is 201 to 203 °C.
Take `CCC1CC2=CC(OC(=O)c3ccc([N+](=O)[O-])cc3)CCC2C2CCC3(C)C(O)CCC3C12` (stereo not drawn): the melting point lay within 135 to 136 °C.
In turn, `N#CCCn1cnc2ccccc21` yielded a melting point of 108 to 110 °C.
The value for `Nc1cccc(C(F)(F)C(F)(F)C(F)(F)C(F)(F)C(F)(F)C(F)(F)C(F)(F)C(F)(F)F)c1` was 35.5 to 36 °C.
Next, `O=C1c2ccccc2S(=O)(=O)N1C1CCN(Cc2c[nH]c3ccccc23)CC1`: 214 to 215 °C.
Next, `COc1cccc(OCC(=O)c2cc(OCc3ccccc3)ccc2OC)c1`: 76 to 77 °C; `O=C(Nc1ccc(C(F)(F)F)cc1)c1ccc(-c2nn(Cc3ccccc3)c3ccccc23)o1`: 205 to 206 °C.
As for `CCCC(=O)Nc1cc(C(Cl)(Cl)Cl)ccn1`, the melting point was in the range of 88 to 90 °C.
The value for `CC1(C)CCc2c(N3CCOCC3)nc3sc4c(NCCc5c[nH]cn5)ncnc4c3c2C1` was 223 to 224 °C.
`CCCc1ccc(S(=O)(=O)c2ccc(F)cc2)cc1S(=O)(=O)NCCc1ccncc1` showed a melting point of 160 to 162 °C.
`Cc1nc2c(OCc3ccccc3)nccn2c1N` gave a melting point of 126 to 133 °C.
The value for `CN1CCN(c2cccc3c2CC[C@@H](N)C3)CC1` was 98 to 99 °C; that for `CN(C)C=CC(=O)C1CC1` was 55 °C.
Next, `NC(=O)c1ccc(N2CCN(Cc3cn4cc(Br)ccc4n3)CC2)cc1`: 238 to 239 °C.
The value for `CCOc1ccc2c(c1)CC2C#N` (stereo not drawn) was 50 to 52 °C.
In the case of `Cc1ccc2nc(SCc3ccccn3)n(-c3ccccc3)c(=O)c2c1`, the melting point was in the range of 167 to 169 °C.
The value for `CC1(CC(=O)O)SCCC2=C1Cc1ccccc12` (stereo not drawn) was 119 to 121 °C.
`CCCn1c(=Nc2ccccc2)sc2ncccc2c1=O` showed a melting point of 94 to 95 °C.
The value for `N=C(N[N+](=O)[O-])N1CCCC1` was 188 to 191 °C.
Next, `CCOc1c(C(=O)c2cccs2)cnc2c1cnn2Cc1ccco1`: 85 to 87 °C.
Next, `O=C(OCCCCCCCCCCCCCCCCOc1ccc(-c2cccc(F)c2F)cc1)C(CCCCCCO)CCCCCCO`: 45.2 to 48.8 °C; `NCc1cccc(Nc2ncnc3[nH]cc(C(=O)c4ccccc4)c23)c1`: 210 to 212 °C; `Nc1nc(Oc2ccccc2)nc2nc(-c3ccco3)nn12`: 250 to 252 °C.
`COc1cccc2c1OCC(C(=O)O)O2` (stereo not drawn) displayed a melting point of 85 to 87 °C.
The value for `COC1CCN(Cc2ccc(COc3cccc4c3CN(C3CCC(=O)NC3=O)C4=O)cc2)CC1` (stereo not drawn) was 149 to 151 °C; that for `CCN1CCC(CCC2CCN(c3ncnc4cc(OC)c(OC)cc34)CC2)S1(=O)=O` (stereo not drawn) was 130 °C; that for `CCN(CC)C(=O)n1ccc(S(=O)(=O)c2cc(Cl)ccc2C)n1` was 96 to 97 °C.
The value for `COC(=O)C1OC(Oc2nc[nH]c2C(N)=O)C(OC(C)=O)C(OC(C)=O)C1OC(C)=O` (stereo not drawn) was 211 to 212 °C; that for `Oc1cc(Br)c(Cl)c(Br)c1` was 120 to 122 °C; that for `CCOC(=O)c1c(SCOC)nc2cc(F)c(F)cc2c1O` was 123 to 127 °C.
The value for `NC(=O)C1Cc2c([nH]c3ccccc23)CN1` (stereo not drawn) was 212 to 216 °C.
In turn, `Cc1nn(Cc2cccc(Cl)c2)cc1C(=O)CC(=O)C(=O)O` registered a melting point of 183 to 184 °C.
`O=c1cc(-c2cc3ccccc3[nH]2)oc2ccccc12` registered a melting point of 157 to 158 °C.
Next, `CC(=O)NC1COc2c(C)ccc(N)c2C1=O` (stereo not drawn): 178 to 180 °C; `N#Cc1cc(NC(=O)c2ccn(-c3ccc(Cl)cc3)c2)ccc1N1CCN(C2CCOCC2)CC1`: 224 °C; `COc1cc(CC(=O)NCCOc2scc(C)c2C)ccc1OCCN`: 85 to 87 °C.
The value for `CCC(C)CC(=O)OC1COC(OC(=O)CC(C)CC)CO1` (stereo not drawn) was 71 to 72 °C; that for `c1ccc(CC(=Nn2cncn2)c2ccccc2)cc1` was 78 to 80 °C.
The value for `COc1ccc(-c2nc3sccn3c2/C=C/C(=O)c2cc(OC)c(OC)c(OC)c2)cc1` was 177 to 179 °C.
In the case of `Cc1cc(Cl)ncc1C(=O)O`, the melting point was 170 to 172 °C.
Next, `Cc1cccc(C)c1C(CNC(=O)OC(C)(C)C)COCc1c(F)cccc1F` (stereo not drawn): 100 °C; `Cc1c(C#N)sc2nc(-c3ccncc3)nc(N(C)CCO)c12`: 194 to 195 °C.
Next, `OC1(c2ccc(Br)cc2)CCN(CCCc2noc3cc(F)ccc23)CC1`: 138 to 145 °C; `COc1ccc2c(c1)C(=O)OC(=O)C2`: 138 to 140 °C; `CCCCCCCCCCCCCCCCCCCC1CN(C(=O)c2cc(OC)c(OC)c(OC)c2)CCN1C(=O)c1cc(OC)c(OC)c(OC)c1` (stereo not drawn): 76 °C.
Next, `COC(=O)c1cc(Cl)cnc1NCc1ccccc1`: 77 to 79 °C; `COc1cc2c(cc1-c1cccnc1)-c1c(Br)c3c(n1CC2)C(=O)N(C(C)(C)C)CCC3`: 184 to 186 °C.
`O=C1c2cc3nnn(CCc4cccc(F)c4)c(=O)c3cc2OC2OCCN12` (stereo not drawn): the melting point was in the range of 191 to 193 °C.
The value for `COC(=O)C(C)(N)Cc1c[nH]c2ccc(OCC3CC3)cc12` (racemic) was 172 °C; that for `Cn1ccnc1Sc1ccc(Nc2c(C#N)cnc3cc(-c4ccc(CN5CCOCC5)nc4)ccc23)cc1Cl` was 233 to 235 °C.
The value for `CC(=O)c1ccc2c(c1)C(=C1CCN(C)CC1)c1ccccc1S2` was 125 to 127 °C; that for `COC(=O)c1cccc2cc(Cc3cc(NC(C)=O)ncn3)ccc12` was 158 to 160 °C; that for `COc1nc(C)nc(NC(=O)NS(=O)(=O)c2cc(OC(F)F)ccc2OC(F)F)n1` was 113 °C.
The value for `Cc1cn(Nc2ccncc2F)c2ccc(OCc3ccccc3)cc12` was 210 to 213 °C; that for `CCc1ccc2c(c1)C=Cc1cc(C)ccc1C2c1cn(-c2ccnc(NCC(=O)Nc3nnn[nH]3)n2)c(=O)[nH]c1=O` (stereo not drawn) was 220 to 225 °C; that for `Cc1cc(CCCCCCCOc2ccc(C(=O)NN)cc2)on1` was 121 to 122 °C.
For `COC(=O)c1ccc(N(C(=O)c2ccccc2-c2ccccc2)C(=O)c2ccccc2-c2ccccc2)nc1`, the melting point was in the range of 180 to 188 °C.
The value for `CC(c1cc(Cl)ccc1N1CCCCC1C)C(C(N)=O)c1ccc(C(=O)O)cc1` (stereo not drawn) was 195 to 198 °C; that for `c1ccc(CN2CCc3[nH]c4c(-c5ccccc5)cccc4c3CC2)cc1` was 78 to 79 °C.
